Data on 54 compounds can be found in patent US7049323B2, “Amidoheterocycles as modulators of the melanocortin-4 receptor” (Bristol-Myers Squibb Company, priority 2003, dated 2006).

As a reminder, the pIC50 is −log10 of the IC50, conventionally taken in molar units. Low values mean a high IC50, high ones a low IC50.

pIC50: −log10 of the molar value. Bounds are passed on as bounds.

In this test the target is T1, cloned human MC4R receptors (Homo sapiens, UniProt P32245).
T1 construct: expressed in transfected cells; host or cells: Hi5 insect cells or HEK-293 cells (baculovirus/human MC4R receptor construct); membranes
T1 sequence (P32245 whole entry): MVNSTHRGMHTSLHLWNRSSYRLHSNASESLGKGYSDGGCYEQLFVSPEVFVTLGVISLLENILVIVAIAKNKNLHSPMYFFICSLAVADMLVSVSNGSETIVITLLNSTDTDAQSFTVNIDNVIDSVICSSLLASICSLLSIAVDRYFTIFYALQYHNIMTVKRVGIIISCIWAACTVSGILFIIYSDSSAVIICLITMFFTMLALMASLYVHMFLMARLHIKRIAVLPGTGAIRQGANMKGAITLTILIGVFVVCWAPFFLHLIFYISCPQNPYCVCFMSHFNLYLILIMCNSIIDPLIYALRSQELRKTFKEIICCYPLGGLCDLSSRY
Description: Melanocortin MC4R membrane binding assay ([125I]NDP-α-MSH competition). The note with it: [125I]NDP-α-MSH 0.1 nM, membranes of Hi5 insect cells or HEK-293 cells, 90 minutes at 37° C. Here is the method:
Melanocortin MC4R Binding Assay. […] A membrane binding assay was used to identify competitive ligands of [^125I]NDP-α-MSH binding to cloned human MC4R receptors expressed in Hi5 insect cells or HEK-293 cells transfected by a baculovirus/human MC4R receptor construct. The membrane binding buffer was composed of 25 mM HEPES, pH 7.4, 140 mM NaCl, 1.2 mM MgCl2, 2.5 mM CaCl2, and 0.1% BSA Membrane protein (0.5 μg) and [^125I]-NDP-α-MSH (to a final concentration of 0.1 nM) were added. Competing ligands or a buffer blank were added and incubated for 90 minutes at 37° C. After filtration, the cell membranes were evaluated in a Wallac Microbeta Trilux Scintillation and Luminescence Counter (Model 1450). Dose-response cureves were fitted by […] analyses and IC50 values are calculated using ExcelFit.
`COCC(=O)N(C1CCCCC1)[C@H]1CCN(C(=O)[C@@H](Cc2ccc(Cl)cc2)NC(=O)CCN)C1` [Example 31]: the pIC50 was 6.00 to 6.60.

For `CC(=O)N(C1CCCCC1)[C@H]1CCN(C(=O)[C@@H](Cc2ccc(Cl)cc2)NC(=O)CCN(C)C)C1` [Example 58], the pIC50 was 5.00 to 6.00.

Take `Cc1noc(C)c1C(=O)N(C1CCCCC1)[C@H]1CCN(C(=O)[C@@H](Cc2ccc(Cl)cc2)NC(=O)CCN)C1` [Example 34]: the pIC50 is > 6.60.

As to `CCCC(=O)N(C1CCCCC1)C1CN(C(=O)[C@@H](Cc2ccc(Cl)cc2)NC(=O)CCN(C)C)C1` [Example 2], the negative logarithm of the IC50 (pIC50) is > 6.60.

`CC(C)N(C(=O)c1ccco1)[C@@H]1CCN(C(=O)[C@@H](Cc2ccc(Cl)cc2)NC(=O)CCN)C1` [Example 36] showed a pIC50 of 5.00 to 6.00.

In the case of `CN(C)CCC(=O)N[C@H](Cc1ccc(Cl)cc1)C(=O)N1CC(N(C(=O)c2cc3ccccc3s2)C2CCCCC2)C1` [Example 12], the negative-log IC50 (pIC50) is 6.00 to 6.60.

As for `CC(C)N([C@H]1CCN(C(=O)[C@@H](Cc2ccc(Cl)cc2)NC(=O)CCN)C1)S(C)(=O)=O` [Example 53], the pIC50 is 5.00 to 6.00.

`NCCC(=O)N[C@H](Cc1ccc(Cl)cc1)C(=O)N1CC[C@H](N(C=O)C2CCCCC2)C1` [Example 44] had a pIC50 of 5.00 to 6.00.

With `CC(C)N([C@H]1CCN(C(=O)[C@@H](Cc2ccc(Cl)cc2)NC(=O)CCN(C)C)C1)S(C)(=O)=O` [Example 62], the pIC50 was 5.00 to 6.00.

For the compound `CN(C)CCC(=O)N[C@H](Cc1ccc(Cl)cc1)C(=O)N1CC(N(C(=O)CC(C)(C)C)C2CCCCC2)C1` [Example 9], the pIC50 was 6.00 to 6.60.

As to `NCCC(=O)N[C@H](Cc1ccc(Cl)cc1)C(=O)N1CC[C@@H](N(C(=O)c2ccno2)C2CCCCC2)C1` [Example 23], the negative logarithm of the IC50 (pIC50) is 5.00 to 6.00.

Consider `NCCC(=O)N[C@H](Cc1ccc(Cl)cc1)C(=O)N1CC[C@H](N(C(=O)c2ccco2)C2CCCC2)C1` [Example 52], for which the pIC50 was 5.00 to 6.00.

Turning to `CN(C)CCC(=O)N[C@H](Cc1ccc(Cl)cc1)C(=O)N1CC(N(C(=O)C2CCCC2)C2CCCCC2)C1` [Example 16], the pIC50 is > 6.60.

Turning to `CN(C)CCC(=O)N[C@H](Cc1ccc(Cl)cc1)C(=O)N1CC(N(C2CCCCC2)S(C)(=O)=O)C1` [Example 4], the pIC50 was 6.00 to 6.60.

As to `CC(C)C(=O)N(C1CCCCC1)[C@H]1CCN(C(=O)[C@@H](Cc2ccc(Cl)cc2)NC(=O)[C@@H]2CNCCN2)C1` [Example 46], the negative-log IC50 (pIC50) is > 6.60.

Compound `O=C(N[C@H](Cc1ccc(Cl)cc1)C(=O)N1CC[C@@H](N(C(=O)c2ccno2)C2CCCCC2)C1)[C@H]1Cc2ccccc2CN1` [Example 19] had a pIC50 of 6.00 to 6.60.

Turning to `O=C(N[C@H](Cc1ccc(Cl)cc1)C(=O)N1CCC(N(C(=O)c2ccno2)C2CCCCC2)C1)[C@H]1Cc2ccccc2CN1` (stereo partly drawn) [Example 17], the pIC50 was > 6.60.

In the case of `CC(C)(C)C(=O)N(C1CCCCC1)[C@H]1CCN(C(=O)[C@@H](Cc2ccc(Cl)cc2)NC(=O)CCN)C1` [Example 32], the negative logarithm of the IC50 (pIC50) was > 6.60.

`NCCC(=O)N[C@H](Cc1ccc(Cl)cc1)C(=O)N1CC[C@H](N(C(=O)c2ccco2)C2CCCCC2)C1` [Example 24] had a negative-log IC50 (pIC50) of 5.00 to 6.00.

For the compound `CN(C)CCC(=O)N[C@H](Cc1ccc(Cl)cc1)C(=O)N1CC(N(C(=O)COc2ccccc2)C2CCCCC2)C1` [Example 13], the negative-log IC50 (pIC50) was 5.00 to 6.00.

`CC(C)CC(=O)N(CC(C)C)[C@H]1CCN(C(=O)[C@@H](Cc2ccc(Cl)cc2)NC(=O)CCN)C1` [Example 48] had a pIC50 of 5.00 to 6.00.

Turning to `CN(C)CCC(=O)N[C@H](Cc1ccc(Cl)cc1)C(=O)N1CC[C@H](N(C2CCCCC2)S(C)(=O)=O)C1` [Example 56], the pIC50 is 5.00 to 6.00.

With `NCCC(=O)N[C@H](Cc1ccc(Cl)cc1)C(=O)N1CC[C@H](N(C(=O)c2ccoc2)C2CCCCC2)C1` [Example 29], the pIC50 is > 6.60.

The compound `CC(C)CC(=O)N(C1CCCC1)[C@H]1CCN(C(=O)[C@@H](Cc2ccc(Cl)cc2)NC(=O)CCN)C1` [Example 51] had a pIC50 of 6.00 to 6.60.

`CCCC(=O)N(C1CCCCCC1)C1CN(C(=O)[C@@H](Cc2ccc(Cl)cc2)NC(=O)CCN(C)C)C1` [Example 3]: the negative logarithm of the IC50 (pIC50) is 6.00 to 6.60.

`CC(C)N(C(=O)c1ccco1)[C@H]1CCN(C(=O)[C@@H](Cc2ccc(Cl)cc2)NC(=O)CCN(C)C)C1` [Example 55] had a pIC50 of 5.00 to 6.00.

With `NCCC(=O)N[C@H](Cc1ccc(Cl)cc1)C(=O)N1CC[C@H](N(C(=O)c2ccccc2)C2CCCCC2)C1` [Example 27], the pIC50 is > 6.60.

`CS(=O)(=O)N(C1CCCCC1)[C@H]1CCN(C(=O)[C@@H](Cc2ccc(Cl)cc2)NC(=O)CCN)C1` [Example 39] showed a pIC50 of 6.00 to 6.60.

Compound `CCCCC(=O)N(C1CCCCC1)C1CN(C(=O)[C@@H](Cc2ccc(Cl)cc2)NC(=O)CCN(C)C)C1` [Example 11] showed a pIC50 of 6.00 to 6.60.

`CC(C)CC(=O)N(C1CCCC1)[C@H]1CCN(C(=O)[C@@H](Cc2ccc(Cl)cc2)NC(=O)CCN(C)C)C1` [Example 61] gave a negative logarithm of the IC50 (pIC50) of 5.00 to 6.00.

The compound `NCCC(=O)N[C@H](Cc1ccc(Cl)cc1)C(=O)N1CC[C@@H](N(C(=O)c2ccccc2)C2CCCCC2)C1` [Example 25] gave a pIC50 of 6.00 to 6.60.

`CS(=O)(=O)N(C1CCCCC1)[C@H]1CCN(C(=O)[C@@H](Cc2ccc(Cl)cc2)NC(=O)[C@H]2Cc3ccccc3CN2)C1` [Example 35]: the negative logarithm of the IC50 (pIC50) is > 6.60.

`O=C(N[C@H](Cc1ccc(Cl)cc1)C(=O)N1CC[C@H](N(C(=O)c2ccno2)C2CCCCC2)C1)[C@H]1Cc2ccccc2CN1` [Example 18]: the pIC50 was > 6.60.

Turning to `CC(C)C(=O)N(C1CCCCC1)[C@H]1CCN(C(=O)[C@@H](Cc2ccc(Cl)cc2)NC(=O)CCN(C)C)C1` [Example 60], the pIC50 was > 6.60.

As to `CN(C)CCC(=O)N[C@H](Cc1ccc(Cl)cc1)C(=O)N1CC(N(C(=O)c2ccno2)C2CCCCC2)C1` [Example 6], the pIC50 was 5.00 to 6.00.

Consider `CC(=O)N(C1CCCCC1)[C@H]1CCN(C(=O)[C@@H](Cc2ccc(Cl)cc2)NC(=O)CCN)C1` [Example 43], for which the negative logarithm of the IC50 (pIC50) is 5.00 to 6.00.

Consider `CC(C)CN(C(=O)c1ccco1)[C@H]1CCN(C(=O)[C@@H](Cc2ccc(Cl)cc2)NC(=O)CCN)C1` [Example 47], for which the pIC50 was 5.00 to 6.00.

With `CCCC(=O)N(C1CCCC1)C1CN(C(=O)[C@@H](Cc2ccc(Cl)cc2)NC(=O)CCN(C)C)C1` [Example 1], the negative logarithm of the IC50 (pIC50) is 6.00 to 6.60.

For the compound `CS(=O)(=O)N(C1CCCC1)[C@H]1CCN(C(=O)[C@@H](Cc2ccc(Cl)cc2)NC(=O)CCN)C1` [Example 50], the negative-log IC50 (pIC50) is 5.00 to 6.00.

For the compound `NCCC(=O)N[C@H](Cc1ccc(Cl)cc1)C(=O)N1CC[C@H](N(C(=O)c2ccno2)C2CCCCC2)C1` [Example 22], the negative logarithm of the IC50 (pIC50) is > 6.60.

`CCCCCC(=O)N(C1CCCCC1)C1CN(C(=O)[C@@H](Cc2ccc(Cl)cc2)NC(=O)CCN(C)C)C1` [Example 15] gave a negative-log IC50 (pIC50) of 6.00 to 6.60.

In the case of `CCCC(=O)N(C1CCCCC1)[C@H]1CCN(C(=O)[C@@H](Cc2ccc(Cl)cc2)NC(=O)CCN)C1` [Example 30], the negative logarithm of the IC50 (pIC50) is > 6.60.

Compound `CN(C)CCC(=O)N[C@H](Cc1ccc(Cl)cc1)C(=O)N1CC(N(C2CCCCC2)S(=O)(=O)c2ccccc2)C1` [Example 5] had a pIC50 of 6.00 to 6.60.

Take `CC(C)CN([C@H]1CCN(C(=O)[C@@H](Cc2ccc(Cl)cc2)NC(=O)CCN)C1)S(C)(=O)=O` [Example 49]: the pIC50 was 5.00 to 6.00.

For the compound `CS(=O)(=O)N(C1CCCCC1)[C@H]1CCN(C(=O)[C@@H](Cc2ccc(Cl)cc2)NC(=O)[C@@H]2CNCCN2)C1` [Example 40], the negative-log IC50 (pIC50) was 6.00 to 6.60.

`CC(C)C(=O)N(C1CCCCC1)[C@H]1CCN(C(=O)[C@@H](Cc2ccc(Cl)cc2)NC(=O)[C@@H]2CCN2C)C1` [Example 69]: the negative logarithm of the IC50 (pIC50) was > 6.60.

As for `CC(C)C(=O)N(C1CCCCC1)[C@H]1CCN(C(=O)[C@@H](Cc2ccc(Cl)cc2)NC(=O)[C@H]2CCN2C)C1` [Example 68], the pIC50 is 6.00 to 6.60.

In turn, `CN(C)CCC(=O)N[C@H](Cc1ccc(Cl)cc1)C(=O)N1CC[C@H](N(C=O)C2CCCCC2)C1` [Example 59] had a negative logarithm of the IC50 (pIC50) of 5.00 to 6.00.

Compound `CC(C)CC(=O)N(C(C)C)[C@H]1CCN(C(=O)[C@@H](Cc2ccc(Cl)cc2)NC(=O)[C@@H]2CNCCN2)C1` [Example 42] gave a pIC50 of 6.00 to 6.60.

`CC(C)C(=O)N(C1CCCCC1)[C@H]1CCN(C(=O)[C@@H](Cc2ccc(Cl)cc2)NC(=O)CCN)C1` [Example 45]: the negative-log IC50 (pIC50) is > 6.60.

As to `CN(C)CCC(=O)N[C@H](Cc1ccc(Cl)cc1)C(=O)N1CC(N(C(=O)C2CCC2)C2CCCCC2)C1` [Example 7], the pIC50 was 6.00 to 6.60.

Compound `CC(C)CC(=O)N(CC(C)C)[C@H]1CCN(C(=O)[C@@H](Cc2ccc(Cl)cc2)NC(=O)CCN(C)C)C1` [Example 66] had a pIC50 of 5.00 to 6.00.

As for `CN(C)CCC(=O)N[C@H](Cc1ccc(Cl)cc1)C(=O)N1CC[C@H](N(C2CCCCC2)S(=O)(=O)c2ccccc2)C1` [Example 67], the pIC50 is > 6.60.

Consider `CC(C)CN(C(=O)c1ccco1)[C@H]1CCN(C(=O)[C@@H](Cc2ccc(Cl)cc2)NC(=O)CCN(C)C)C1` [Example 65], for which the pIC50 is 5.00 to 6.00.
